Measurements published in PMC9065260 (Frontiers in Pharmacology, 2022).

Experiments:
KYSE70 cells = assay: MTT assay for cell proliferation and cytotoxicity; type: cell-based; details: Homo sapiens, KYSE-70; MTT, 48 h, mean ± SD; read-out: IC50 KYSE70
Method: (§1) The compounds were dissolved in DMSO to make a 50 mM stock solution and were diluted to the concentration of working solutions with the complete growth medium before administration.
(§2) Cells were seeded in 96-well plates with densities of 2,200–2,500 cells/well in 100 μL. One day after seeding, the concentration of the test compounds between 0 and 50 μM, 0.1% DMSO was added to cells as control. […] After 48 h, MTT was added and incubated in the plate for 1–4 h in the incubator.

KYSE410 cells = assay: MTT assay for cell proliferation and cytotoxicity; type: cell-based; details: Homo sapiens, KYSE-410; MTT, 48 h, mean ± SD; read-out: IC50 KYSE410
Method: as §1, §2

KYSE450 cells = assay: MTT assay for cell proliferation and cytotoxicity; type: cell-based; details: Homo sapiens, KYSE-450; MTT, 48 h, mean ± SD; read-out: IC50 KYSE450
Method: as §1, §2

H1650 cells = assay: MTT assay for cell proliferation and cytotoxicity; type: cell-based; details: Homo sapiens, NCI-H1650; MTT, 48 h, mean ± SD; read-out: IC50 H1650
Method: as §1, §2

HCC827 cells = assay: MTT assay for cell proliferation and cytotoxicity; type: cell-based; details: Homo sapiens, 48 h, mean ± SD
Method: as §1, §2

[1] = tested on: human esophageal epithelial cell SHEE; assay: MTT assay, toxicity against normal cells; type: cell-based; details: MTT, normal human esophageal epithelial cells, mean ± SD, read-out: IC50 SHEE
Method: Cells were seeded in 96-well plates with densities of 2,200–2,500 cells/well in 100 μL. One day after seeding, the concentration of the test compounds between 0 and 50 μM, 0.1% DMSO was added to cells as control. Approximately 2200-2500 transfected cells in 100 μL were incubated in quintuplicate in 96-well plates. After 48 h, MTT was added and incubated in the plate for 1–4 h in the incubator.

Row | Structure (SMILES) | IC50 (KYSE70 cells) | IC50 (KYSE410 cells) | IC50 (KYSE450 cells) | IC50 (H1650 cells) | IC50 (HCC827 cells) | IC50 [1] | melting point
1 | COCCOc1cc2ncnc(Nc3cccc(-c4cn(Cc5ccccc5)nn4)c3)c2cc1OCCOC [Compound 3a, {3-[1-Benzyl-1H-(1,2,3)Triazol-4-yl]-Phenyl}-[6,7-Bis-(2-Methoxy-Ethoxy)-Quinazolin-4-yl]-Amine] | 5.85 ± 0.28 µM | 9.7 ± 0.75 µM | 5.27 ± 0.31 µM | 34 ± 2.77 µM | > 50 µM | > 50 µM | 89 to 92 °C
2 | COCCOc1cc2ncnc(Nc3cccc(-c4cn(Cc5ccccc5I)nn4)c3)c2cc1OCCOC [Compound 3b, [6,7-Bis-(2-Methoxy-Ethoxy)-Quinazolin-4-yl]-{3-[1-(2-Iodo-Benzyl)-1H-(1,2,3)Triazol-4-yl]-Phenyl}-Amine] | 9.03 ± 0.82 µM | 17.6 ± 1.37 µM | 20.6 ± 1.87 µM | > 50 µM | > 50 µM | 8.05 ± 0.71 µM | 93 to 96 °C
3 | COCCOc1cc2ncnc(Nc3cccc(-c4cn(Cc5ccccc5Br)nn4)c3)c2cc1OCCOC [Compound 3c, [6,7-Bis-(2-Methoxy-Ethoxy)-Quinazolin-4-yl]-{3-[1-(2-Bromo-Benzyl)-1H-(1,2,3)Triazol-4-yl]-Phenyl}-Amine] | 5.35 ± 0.34 µM | > 50 µM | 5.47 ± 0.29 µM | 5.72 ± 0.33 µM | > 50 µM | 22.4 ± 2.53 µM | 94 to 97 °C
4 | COCCOc1cc2ncnc(Nc3cccc(-c4cn(-c5cccc(OC)c5)nn4)c3)c2cc1OCCOC [Compound 3e, [6,7-Bis-(2-Methoxy-Ethoxy)-Quinazolin-4-yl]-{3-[1-(3-Methoxy-Phenyl)-1H-(1,2,3)Triazol-4-yl]-Phenyl}-Amine] | 12.6 ± 1.01 µM | > 50 µM | 6.25 ± 0.35 µM | 21.1 ± 1.74 µM | > 50 µM | > 50 µM | 
5 | COCCOc1cc2ncnc(Nc3cccc(-c4cn(-c5ccccc5F)nn4)c3)c2cc1OCCOC [Compound 3f, [6,7-Bis-(2-Methoxy-Ethoxy)-Quinazolin-4-yl]-{3-[1-(2-Fluoro-Phenyl)-1H-(1,2,3)Triazol-4-yl]-Phenyl}-Amine] | > 50 µM | > 50 µM | 34.2 ± 3.01 µM | > 50 µM | 17.8 ± 1.61 µM | 12.1 ± 1.33 µM | 83 to 86 °C
6 | COCCOc1cc2ncnc(Nc3cccc(-c4cn(-c5ccc(F)cc5)nn4)c3)c2cc1OCCOC [Compound 3g, [6,7-Bis-(2-Methoxy-Ethoxy)-Quinazolin-4-yl]-{3-[1-(4-Fluoro-Phenyl)-1H-(1,2,3)Triazol-4-yl]-Phenyl}-Amine] | 5.46 ± 0.23 µM | > 50 µM | 44.5 ± 4.23 µM | 29.6 ± 2.18 µM | > 50 µM | 8.01 ± 0.83 µM | 88 to 91 °C
7 | COCCOc1cc2ncnc(Nc3cccc(-c4cn(-c5ccccc5Cl)nn4)c3)c2cc1OCCOC [Compound 3h, [6,7-Bis-(2-Methoxy-Ethoxy)-Quinazolin-4-yl]-{3-[1-(2-Chloro-Phenyl)-1H-(1,2,3)Triazol-4-yl]-Phenyl}-Amine] | > 50 µM | > 50 µM | > 50 µM | > 50 µM | > 50 µM | 6.03 ± 0.57 µM | 131 to 134 °C
8 | COCCOc1cc2ncnc(Nc3cccc(-c4cn(-c5ccccc5Br)nn4)c3)c2cc1OCCOC [Compound 3i, [6,7-Bis-(2-Methoxy-Ethoxy)-Quinazolin-4-yl]-{3-[1-(2-Bromo-Phenyl)-1H-(1,2,3)Triazol-4-yl]-Phenyl}-Amine] | 36.1 ± 3.17 µM | > 50 µM | > 50 µM | > 50 µM | 24.2 ± 2.34 µM | 6.23 ± 0.62 µM | 93 to 97 °C
9 | COCCOc1cc2ncnc(Nc3cccc(-c4cn(-c5ccc(Br)cc5)nn4)c3)c2cc1OCCOC [Compound 3j, [6,7-Bis-(2-Methoxy-Ethoxy)-Quinazolin-4-yl]-{3-[1-(4-Bromo-Phenyl)-1H-(1,2,3)Triazol-4-yl]-Phenyl}-Amine] | 3.72 ± 0.33 µM | > 50 µM | 3.6 ± 0.27 µM | 4.98 ± 0.17 µM | 6.27 ± 0.42 µM | 7.2 ± 0.63 µM | 105 to 108 °C
10 | COCCOc1cc2ncnc(Nc3cccc(-c4cn(-c5ccccc5OC)nn4)c3)c2cc1OCCOC [Compound 3k, [6,7-Bis-(2-Methoxy-Ethoxy)-Quinazolin-4-yl]-{3-[1-(2-Methoxy-Phenyl)-1H-[1,2,3]Triazol-4-yl]-Phenyl}-Amine] | 16 ± 1.53 µM | 32 ± 3.25 µM | 20 ± 2.25 µM | 16 ± 1.69 µM | 6.18 ± 0.61 µM | 10.3 ± 0.96 µM | 87 to 90 °C
11 | COCCOc1cc2ncnc(Nc3cccc(-c4cn(-c5ccc(C)cc5)nn4)c3)c2cc1OCCOC [Compound 3l, [6,7-Bis-(2-Methoxy-Ethoxy)-Quinazolin-4-yl]-[3-(1-p-Tolyl-1H-(1,2,3)Triazol-4-yl)-Phenyl]-Amine] | 11.1 ± 0.94 µM | > 50 µM | > 50 µM | 10 ± 0.79 µM | 4.61 ± 0.28 µM | 4.82 ± 0.32 µM | 95 to 98 °C
12 | COCCOc1cc2ncnc(Nc3cccc(-c4cn(-c5cccc([N+](=O)[O-])c5)nn4)c3)c2cc1OCCOC [Compound 3m, [6,7-Bis-(2-Methoxy-Ethoxy)-Quinazolin-4-yl]-{3-[1-(3-Nitro-Phenyl)-1H-(1,2,3)Triazol-4-yl]-Phenyl}-Amine] | 3.92 ± 0.15 µM | 5.85 ± 0.2 µM | 4.05 ± 0.21 µM | 4.27 ± 0.19 µM | 8.44 ± 0.37 µM | > 50 µM | 98 to 101 °C
13 | CCOc1cccc(-n2cc(-c3cccc(Nc4ncnc5cc(OCCOC)c(OCCOC)cc45)c3)nn2)c1 [Compound 3n, [6,7-Bis-(2-Methoxy-Ethoxy)-Quinazolin-4-yl]-{3-[1-(3-Ethoxy-Phenyl)-1H-(1,2,3)Triazol-4-yl]-Phenyl}-Amine] | > 50 µM | 49.7 ± 4.57 µM | 12.8 ± 1.25 µM | 35.4 ± 3.46 µM | 13.7 ± 1.34 µM | 22.6 ± 2.31 µM | 110 to 114 °C
14 | COCCOc1cc2ncnc(Nc3cccc(-c4cn(-c5ccccc5)nn4)c3)c2cc1OCCOC [Compound 3o, [6,7-Bis-(2-Methoxy-Ethoxy)-Quinazolin-4-yl]-[3-(1-Phenyl-1H-(1,2,3)Triazol-4-yl)-Phenyl]-Amine] | > 50 µM | 49.5 ± 5.01 µM | 46.8 ± 4.63 µM | > 50 µM | > 50 µM | 14.2 ± 1.61 µM | 
15 | COCCOc1cc2ncnc(Nc3cccc(-c4cn(-c5ccccc5C(F)(F)F)nn4)c3)c2cc1OCCOC [Compound 3p, [6,7-Bis-(2-Methoxy-Ethoxy)-Quinazolin-4-yl]-{3-[1-(2-Trifluoromethyl-Phenyl)-1H-(1,2,3)Triazol-4-yl]-Phenyl}-Amine] | > 50 µM | > 50 µM | 24.9 ± 2.16 µM | > 50 µM | 34.7 µM | > 50 µM | 113 to 116 °C
16 | COCCOc1cc2ncnc(Nc3cccc(-c4cn(-c5ccc(OC)cc5OC)nn4)c3)c2cc1OCCOC [Compound 3q, [6,7-Bis-(2-Methoxy-Ethoxy)-Quinazolin-4-yl]-{3-[1-(2,4-Dimethoxy-Phenyl)-1H-(1,2,3)Triazol-4-yl]-Phenyl}-Amine] | > 50 µM | 12.3 ± 0.93 µM | > 50 µM | > 50 µM | > 50 µM | 28.1 ± 2.47 µM | 85 to 88 °C
17 | COCCOc1cc2ncnc(Nc3cccc(-c4cn(-c5ccc(C)cc5O)nn4)c3)c2cc1OCCOC [Compound 3r, 2-(4-{3-[6,7-Bis-(2-Methoxy-Ethoxy)-Quinazolin-4-Ylamino]-Phenyl}-(1,2,3)Triazol-1-yl)-5-Methyl-Phenol] | 5.85 ± 0.52 µM | 8.74 ± 0.74 µM | 8.2 ± 0.67 µM | 4.32 ± 0.27 µM | 12.4 ± 1.07 µM | > 50 µM | 100 to 103 °C
